In test [1] the target is T1, Fatty acid synthase (Homo sapiens, UniProt P49327). Description: inhibition of human FAS-TE enzyme activity – biochemical, endpoint fluorescence intensity, uHTS hits, dose response (AID 624327).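 Further: fluorescence from hydrolysis of an O-methyl fluorescein acyl ester substrate by the enzyme.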 The class given is functional.
For test [2], the target named is T1, Fatty acid synthase. Description: inhibition of human FAS-TE enzyme activity – biochemical, kinetic fluorescence intensity, dose response (AID 624326).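 Further: rate of fluorescence rise from hydrolysis of a fluorogenic O-methyl fluorescein ester substrate.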 The format is functional.
For test [3], the target named is Voltage-dependent T-type calcium channel subunit alpha-1H (Homo sapiens, UniProt O95180). The format is functional.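 Further: channel activity triggered by adding a high calcium stimulation buffer.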
Sequence of Voltage-dependent T-type calcium channel subunit alpha-1H (O95180 whole entry): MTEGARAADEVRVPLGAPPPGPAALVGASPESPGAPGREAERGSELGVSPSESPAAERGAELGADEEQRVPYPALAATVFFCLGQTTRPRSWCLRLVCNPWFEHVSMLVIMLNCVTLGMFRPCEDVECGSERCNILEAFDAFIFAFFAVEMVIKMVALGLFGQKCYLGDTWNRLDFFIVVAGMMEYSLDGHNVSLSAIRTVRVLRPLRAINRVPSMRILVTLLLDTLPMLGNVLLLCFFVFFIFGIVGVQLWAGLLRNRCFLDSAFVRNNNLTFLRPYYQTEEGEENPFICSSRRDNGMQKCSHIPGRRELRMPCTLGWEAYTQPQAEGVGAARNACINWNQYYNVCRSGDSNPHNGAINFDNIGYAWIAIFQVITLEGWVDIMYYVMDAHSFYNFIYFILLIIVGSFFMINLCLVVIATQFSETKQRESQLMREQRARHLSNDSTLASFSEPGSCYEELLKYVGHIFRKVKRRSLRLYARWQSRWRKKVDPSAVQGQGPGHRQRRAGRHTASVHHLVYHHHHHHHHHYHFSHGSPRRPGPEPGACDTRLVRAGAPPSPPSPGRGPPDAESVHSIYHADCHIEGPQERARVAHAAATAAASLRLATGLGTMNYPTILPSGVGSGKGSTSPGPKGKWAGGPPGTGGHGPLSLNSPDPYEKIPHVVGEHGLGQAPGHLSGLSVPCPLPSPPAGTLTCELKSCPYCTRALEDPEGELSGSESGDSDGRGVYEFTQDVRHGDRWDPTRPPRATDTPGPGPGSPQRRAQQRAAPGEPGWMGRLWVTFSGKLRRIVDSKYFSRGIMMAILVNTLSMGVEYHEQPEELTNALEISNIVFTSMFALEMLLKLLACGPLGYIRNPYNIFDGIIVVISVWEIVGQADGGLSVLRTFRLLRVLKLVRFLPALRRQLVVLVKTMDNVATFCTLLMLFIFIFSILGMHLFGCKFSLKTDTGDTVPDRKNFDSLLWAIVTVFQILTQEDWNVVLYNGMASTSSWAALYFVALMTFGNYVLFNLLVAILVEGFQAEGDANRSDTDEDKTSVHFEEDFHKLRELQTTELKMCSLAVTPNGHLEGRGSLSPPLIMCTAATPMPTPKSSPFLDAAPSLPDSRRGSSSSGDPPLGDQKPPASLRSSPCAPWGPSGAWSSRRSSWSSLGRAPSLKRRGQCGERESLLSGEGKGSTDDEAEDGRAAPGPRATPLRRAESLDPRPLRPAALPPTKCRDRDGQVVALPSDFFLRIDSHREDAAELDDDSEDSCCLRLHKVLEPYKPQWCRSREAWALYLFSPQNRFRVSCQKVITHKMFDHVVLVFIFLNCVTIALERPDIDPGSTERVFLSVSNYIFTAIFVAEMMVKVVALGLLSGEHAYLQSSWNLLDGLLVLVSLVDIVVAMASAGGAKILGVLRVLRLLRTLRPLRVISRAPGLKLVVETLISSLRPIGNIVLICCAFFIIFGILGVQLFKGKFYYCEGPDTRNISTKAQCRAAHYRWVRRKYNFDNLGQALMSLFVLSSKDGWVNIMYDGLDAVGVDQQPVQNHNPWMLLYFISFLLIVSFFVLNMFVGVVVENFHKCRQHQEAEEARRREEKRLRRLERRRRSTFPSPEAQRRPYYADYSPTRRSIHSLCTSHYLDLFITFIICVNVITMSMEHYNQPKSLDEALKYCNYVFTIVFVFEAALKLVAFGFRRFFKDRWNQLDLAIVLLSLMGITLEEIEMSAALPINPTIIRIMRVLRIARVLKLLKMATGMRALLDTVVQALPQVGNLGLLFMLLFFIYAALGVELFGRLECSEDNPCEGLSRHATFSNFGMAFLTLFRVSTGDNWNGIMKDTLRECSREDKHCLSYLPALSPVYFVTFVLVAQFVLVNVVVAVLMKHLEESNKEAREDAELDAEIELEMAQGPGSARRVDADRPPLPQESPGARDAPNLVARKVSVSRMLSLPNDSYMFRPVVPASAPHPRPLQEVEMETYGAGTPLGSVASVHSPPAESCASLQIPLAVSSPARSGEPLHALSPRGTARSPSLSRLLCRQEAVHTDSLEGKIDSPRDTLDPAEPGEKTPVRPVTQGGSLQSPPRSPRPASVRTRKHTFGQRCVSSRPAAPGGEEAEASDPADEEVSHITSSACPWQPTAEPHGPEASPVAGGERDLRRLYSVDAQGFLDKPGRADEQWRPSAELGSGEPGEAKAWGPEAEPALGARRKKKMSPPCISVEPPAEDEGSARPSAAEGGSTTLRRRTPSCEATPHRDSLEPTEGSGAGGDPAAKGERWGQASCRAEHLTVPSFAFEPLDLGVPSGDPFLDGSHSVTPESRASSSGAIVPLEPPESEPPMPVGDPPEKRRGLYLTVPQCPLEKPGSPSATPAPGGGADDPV
A further test deals with T2, Leucine aminopeptidase (Plasmodium falciparum 3D7, UniProt Q8IL11).
T2 sequence (Q8IL11 whole entry): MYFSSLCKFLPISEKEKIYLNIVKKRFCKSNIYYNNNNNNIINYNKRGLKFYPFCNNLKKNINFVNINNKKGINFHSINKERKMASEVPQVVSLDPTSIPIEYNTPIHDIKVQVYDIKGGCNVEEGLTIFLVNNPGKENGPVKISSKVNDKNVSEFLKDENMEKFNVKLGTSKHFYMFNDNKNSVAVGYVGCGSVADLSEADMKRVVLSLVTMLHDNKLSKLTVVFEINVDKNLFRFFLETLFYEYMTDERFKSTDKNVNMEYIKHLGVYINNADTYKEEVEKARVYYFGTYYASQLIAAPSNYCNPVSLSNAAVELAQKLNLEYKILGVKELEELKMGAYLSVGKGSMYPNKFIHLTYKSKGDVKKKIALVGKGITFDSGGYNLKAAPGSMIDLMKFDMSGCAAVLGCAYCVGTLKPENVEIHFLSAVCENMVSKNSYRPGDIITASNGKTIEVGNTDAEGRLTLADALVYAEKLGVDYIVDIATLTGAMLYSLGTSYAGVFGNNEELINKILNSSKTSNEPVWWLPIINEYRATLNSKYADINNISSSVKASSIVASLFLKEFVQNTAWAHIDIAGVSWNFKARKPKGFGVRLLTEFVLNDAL
Description: P. falciparum M17LAP inhibitors, primary screen, biochemical, fluorogenic H-Leu-NHMec substrate, 1536-well (AID 1619). The class given is functional.

Test [4] deals with T3, Polyadenylate-binding protein 1 (Homo sapiens, UniProt P11940). Put plainly: MLLE domain peptide-binding blockers, IC50 – biochemical, fluorescence polarization, FITC-PAM2 peptide, dose response (AID 602259). The format is functional. Particulars: read-out: IC50_Mean.
The target in test [5] is T3, Polyadenylate-binding protein 1. Put plainly: MLLE binding blockers, Cy5 peptide tracer – biochemical, fluorescence polarization, Cy5-PAM2 peptide, secondary, miRNA deadenylation inhibitor project, dose response (AID 602260). The format is functional. Particulars: read-out: IC50_Mean. (Fluorescence polarisation rises when a labelled molecule tumbles more slowly, as on binding a larger partner.)

A short description of test [6]: off-target signal loss in HeLa-CEM21 co-culture – HeLa F-luc CTL cells, cherry-picked, counter-screen for HIV-1 Env fusion inhibitor project, dose response (AID 652040).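 Further: potency for signal decrease marking cytotoxic or nonspecific inhibition.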 The class given is functional, cell-based. (Counterscreens check selectivity or assay interference.)
Test [7] in a line: blockers of HIV-1 ZM109 envelope-driven cell-cell fusion – HeLa effector, CEM target cells, luciferase, cherry-pick, dose response (AID 652058).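 Further: luciferase signal from HIV-1 Env mediated cell-cell fusion of effector and target cells.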 The class given is functional, cell-based.
The nature of test [8]: HIV-1 AD8 envelope cell-cell fusion blockers – cherry-pick, dose response (AID 652062).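 Further: luciferase signal from cell-cell fusion driven by HIV-1 clade B AD8 Env; potency is for inhibitors of fusion seen as a drop in luminescence.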 The format is functional, cell-based.
Test [9] is described as follows: blockers of HIV-1 envelope-mediated cell-cell fusion – cherry-pick, dose response (AID 652057). The class given is functional, cell-based.
Test [10] has as its target T4, RNA-binding protein pos-1 (Caenorhabditis elegans, UniProt G5EF15).
T4 sequence (G5EF15 whole entry): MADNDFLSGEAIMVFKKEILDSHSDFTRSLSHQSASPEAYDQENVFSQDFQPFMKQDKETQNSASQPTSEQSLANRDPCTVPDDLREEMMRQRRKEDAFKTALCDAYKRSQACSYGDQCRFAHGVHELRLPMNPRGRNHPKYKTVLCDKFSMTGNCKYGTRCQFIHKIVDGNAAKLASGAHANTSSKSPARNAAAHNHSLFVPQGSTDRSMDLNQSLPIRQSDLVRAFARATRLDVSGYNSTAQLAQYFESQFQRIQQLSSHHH
Put plainly: disruptors of C. elegans POS-1 RNA interaction – biochemical, fluorescence polarization, dose response (AID 1964).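 Further: purified POS-1 fused to maltose binding protein made in E. coli; potency of compounds blocking POS-1 binding to fluorescent RNA.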

In test [11] the target is T5, Zinc finger protein mex-5 (Caenorhabditis elegans, UniProt Q9XUB2).
T5 sequence (Q9XUB2 whole entry): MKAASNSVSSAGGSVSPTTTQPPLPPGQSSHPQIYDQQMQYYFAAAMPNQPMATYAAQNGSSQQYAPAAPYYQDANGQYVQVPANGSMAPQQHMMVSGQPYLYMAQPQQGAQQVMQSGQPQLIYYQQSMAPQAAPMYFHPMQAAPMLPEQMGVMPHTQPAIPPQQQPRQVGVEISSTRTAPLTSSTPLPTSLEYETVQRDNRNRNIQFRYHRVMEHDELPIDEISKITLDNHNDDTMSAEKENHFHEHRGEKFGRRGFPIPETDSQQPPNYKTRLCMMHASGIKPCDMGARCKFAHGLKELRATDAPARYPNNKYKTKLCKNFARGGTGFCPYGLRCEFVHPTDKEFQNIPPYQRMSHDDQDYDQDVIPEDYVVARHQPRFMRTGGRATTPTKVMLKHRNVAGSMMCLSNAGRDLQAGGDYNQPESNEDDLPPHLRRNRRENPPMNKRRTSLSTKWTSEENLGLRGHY
Put plainly: potency of MEX-5 RNA-binding blockers – biochemical, C. elegans, fluorescence polarization, dose response (AID 1960).

The subject of a further test is Vero. Put plainly: cells. Particulars: Chlorocebus sabaeus. The class given is functional.
In a further test the target is Large T antigen (Simian virus 40, UniProt P03070). The format is functional, Betapolyomavirus macacae.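 Further: Confirmatory-stage PubChem screen for compounds that inhibit SV40 T antigen.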
The target in test [12] is Glucose-6-phosphate 1-dehydrogenase (Homo sapiens, UniProt P11413). Description: inhibition of Homo sapiens G6PD, dose series – biochemical, fluorescence, selectivity assay for P. falciparum G6PD inhibitor project, dose response (AID 504792). The format is functional.
A further test concerns the target Cytochrome P450 3A4 (Homo sapiens, UniProt P08684).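 Further: CYP3A4 tested as one member of a cytochrome P450 panel screen.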
A further test deals with Cytochrome P450 2C19 (Homo sapiens, UniProt P33261). Description: Cytochrome panel assay with activity outcomes. Panel member name: p450-cyp2c19 Compounds with AC50 equal or less than 10 uM are considered active. The format is functional. To be noted: read-out: AC50.
Test [13] addresses T6, Rac GTPase-activating protein 1 (Homo sapiens, UniProt Q9H0H5).
T6 sequence (Q9H0H5 whole entry): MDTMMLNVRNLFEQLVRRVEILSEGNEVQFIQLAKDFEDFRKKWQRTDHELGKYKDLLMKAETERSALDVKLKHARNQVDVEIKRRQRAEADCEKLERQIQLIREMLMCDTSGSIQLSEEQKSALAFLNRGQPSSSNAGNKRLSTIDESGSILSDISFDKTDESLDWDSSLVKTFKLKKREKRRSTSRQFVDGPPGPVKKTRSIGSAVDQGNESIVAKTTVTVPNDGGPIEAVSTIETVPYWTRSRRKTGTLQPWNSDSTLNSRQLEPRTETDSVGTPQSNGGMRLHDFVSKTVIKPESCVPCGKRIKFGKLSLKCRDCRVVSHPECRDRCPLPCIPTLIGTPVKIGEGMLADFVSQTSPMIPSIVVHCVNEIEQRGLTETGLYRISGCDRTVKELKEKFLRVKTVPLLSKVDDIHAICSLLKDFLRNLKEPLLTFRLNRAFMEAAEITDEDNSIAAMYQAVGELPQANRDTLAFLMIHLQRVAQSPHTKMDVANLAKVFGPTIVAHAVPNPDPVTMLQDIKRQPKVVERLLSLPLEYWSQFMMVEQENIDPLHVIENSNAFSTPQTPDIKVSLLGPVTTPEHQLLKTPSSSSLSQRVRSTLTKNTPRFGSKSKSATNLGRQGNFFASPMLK
Put plainly: blockers of MgcRacGAP-driven Rac1 GTP hydrolysis – biochemical, ADP Hunter fluorescence, primary and confirmatory, confirmation (AID 624330). The format is functional.

A short description of test [14]: reduction of Shn3 3'UTR-driven luciferase in osteoblasts – cell-based, Clone20 osteoblasts, firefly luciferase, cherry-picked, dose response (AID 624132).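 Further: firefly luciferase luminescence from reporter carrying the Shn3 3'UTR in osteoblasts.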 The format is functional.

Calls of active or inactive are those of the source. Where only a bound is given, the exact number is not on record here.

In general, EC50 refers to the concentration needed to bring the measured effect to its halfway point. Broadly, the AC50 is the concentration giving half of the maximal activity seen. As a reminder, the CC50 is the concentration at which the toxic effect on the cells reaches its halfway point.

T1 sequence (P49327 whole entry): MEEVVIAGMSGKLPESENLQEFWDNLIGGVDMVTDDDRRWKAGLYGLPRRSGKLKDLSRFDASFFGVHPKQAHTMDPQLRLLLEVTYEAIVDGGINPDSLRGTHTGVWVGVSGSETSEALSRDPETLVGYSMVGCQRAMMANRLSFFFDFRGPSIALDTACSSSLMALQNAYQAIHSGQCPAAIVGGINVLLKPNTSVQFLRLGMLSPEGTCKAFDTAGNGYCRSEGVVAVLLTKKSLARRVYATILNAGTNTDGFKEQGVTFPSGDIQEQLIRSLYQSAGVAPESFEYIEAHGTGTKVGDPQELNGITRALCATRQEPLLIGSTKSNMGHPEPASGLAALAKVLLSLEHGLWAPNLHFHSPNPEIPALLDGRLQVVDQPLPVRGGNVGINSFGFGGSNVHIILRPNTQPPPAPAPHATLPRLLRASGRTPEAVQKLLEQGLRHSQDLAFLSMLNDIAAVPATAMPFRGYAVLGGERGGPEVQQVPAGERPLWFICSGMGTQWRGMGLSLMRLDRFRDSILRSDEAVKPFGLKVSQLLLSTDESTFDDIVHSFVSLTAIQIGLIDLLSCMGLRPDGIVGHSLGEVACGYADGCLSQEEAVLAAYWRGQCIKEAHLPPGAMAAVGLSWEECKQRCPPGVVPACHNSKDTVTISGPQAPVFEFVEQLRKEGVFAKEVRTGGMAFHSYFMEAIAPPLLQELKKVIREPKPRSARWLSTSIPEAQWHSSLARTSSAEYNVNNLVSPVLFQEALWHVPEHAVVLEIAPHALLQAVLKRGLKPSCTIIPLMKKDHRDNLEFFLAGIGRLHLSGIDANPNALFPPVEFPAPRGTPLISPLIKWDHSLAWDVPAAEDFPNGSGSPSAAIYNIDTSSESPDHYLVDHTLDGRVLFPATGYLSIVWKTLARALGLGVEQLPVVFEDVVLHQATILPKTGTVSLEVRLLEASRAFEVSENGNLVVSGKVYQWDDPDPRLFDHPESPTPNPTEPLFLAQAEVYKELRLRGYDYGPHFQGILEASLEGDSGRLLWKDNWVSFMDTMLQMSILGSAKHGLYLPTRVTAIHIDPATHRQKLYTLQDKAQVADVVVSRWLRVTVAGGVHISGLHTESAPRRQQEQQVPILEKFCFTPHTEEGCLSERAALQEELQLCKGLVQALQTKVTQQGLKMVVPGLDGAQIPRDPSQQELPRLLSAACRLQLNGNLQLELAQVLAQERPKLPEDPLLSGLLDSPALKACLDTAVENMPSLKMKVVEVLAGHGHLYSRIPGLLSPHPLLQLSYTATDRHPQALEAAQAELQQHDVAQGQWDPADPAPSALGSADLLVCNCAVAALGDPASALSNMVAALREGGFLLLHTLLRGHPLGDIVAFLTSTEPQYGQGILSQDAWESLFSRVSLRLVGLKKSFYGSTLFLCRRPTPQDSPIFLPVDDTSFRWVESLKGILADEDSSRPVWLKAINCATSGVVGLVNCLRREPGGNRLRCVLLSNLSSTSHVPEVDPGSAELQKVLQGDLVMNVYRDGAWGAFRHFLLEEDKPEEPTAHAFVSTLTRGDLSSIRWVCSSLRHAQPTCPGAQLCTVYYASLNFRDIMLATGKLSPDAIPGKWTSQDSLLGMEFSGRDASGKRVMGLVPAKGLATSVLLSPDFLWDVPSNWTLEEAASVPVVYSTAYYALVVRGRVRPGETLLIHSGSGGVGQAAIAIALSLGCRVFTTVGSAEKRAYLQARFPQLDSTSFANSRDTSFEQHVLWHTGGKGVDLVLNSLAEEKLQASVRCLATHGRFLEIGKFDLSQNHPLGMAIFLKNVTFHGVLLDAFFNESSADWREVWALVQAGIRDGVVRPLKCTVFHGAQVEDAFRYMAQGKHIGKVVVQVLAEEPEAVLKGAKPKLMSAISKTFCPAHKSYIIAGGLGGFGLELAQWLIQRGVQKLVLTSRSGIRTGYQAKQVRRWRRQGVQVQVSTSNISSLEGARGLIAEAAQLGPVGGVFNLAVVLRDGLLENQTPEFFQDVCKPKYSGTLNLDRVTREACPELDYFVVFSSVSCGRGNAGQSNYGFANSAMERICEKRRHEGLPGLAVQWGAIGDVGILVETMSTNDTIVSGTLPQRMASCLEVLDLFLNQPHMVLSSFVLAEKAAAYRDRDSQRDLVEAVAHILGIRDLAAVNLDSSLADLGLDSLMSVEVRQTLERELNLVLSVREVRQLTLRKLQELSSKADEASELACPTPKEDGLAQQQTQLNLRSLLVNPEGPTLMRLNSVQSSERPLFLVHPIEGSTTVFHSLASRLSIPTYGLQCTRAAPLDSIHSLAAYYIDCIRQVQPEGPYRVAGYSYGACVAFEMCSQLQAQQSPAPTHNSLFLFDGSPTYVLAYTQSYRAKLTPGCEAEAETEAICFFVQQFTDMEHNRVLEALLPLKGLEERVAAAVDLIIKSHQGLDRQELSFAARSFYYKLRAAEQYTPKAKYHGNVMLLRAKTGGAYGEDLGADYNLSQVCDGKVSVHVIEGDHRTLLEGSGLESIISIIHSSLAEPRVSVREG

On to `O=C(NNc1cccc([N+](=O)[O-])c1)/C(=C\c1cccnc1)NC(=O)c1ccccc1`, for which the results for the IC50 at Fatty acid synthase [1] and at Fatty acid synthase [2] were 6.04 µM (active) and 4.39 µM (active), respectively.

`CCC(=O)C1=C(NCCc2c(C)[nH]c3ccc(C)cc23)CC(c2ccccc2)CC1=O` (stereo unspecified): in test [3], the EC50 was 798 µM (active).

As to `NC(=O)c1c(NC(=O)C2CCCO2)sc2c1CCCCC2` (stereo unspecified), the IC50 on Leucine aminopeptidase was 58.7 µM (active); in test [4] it was > 66 µM (inactive); in test [5] it was > 66 µM (inactive).

Take `COc1ccccc1N1CCN(CC(O)COc2ccc3c(c2)CCC3)CC1` (stereo unspecified): the EC50 in test [3] was 5.92 µM (active).

Turning to `CC(=O)Nc1c(O)nc(SCC(=O)Nc2sc3c(c2C#N)CCCCCC3)nc1O`, the IC50 on Leucine aminopeptidase is 27.9 µM (active).

In the case of `CCOC(=O)CSC(C)C(=O)Nc1nnc(C(C)C)s1` (stereo unspecified), the IC50 on Leucine aminopeptidase was 37.7 µM (active).

Turning to `Cc1[nH]c2ccccc2c1Cc1nnc(SCc2ccccc2)o1`, the EC50 in test [3] was 3.55 µM (active).

Take `Cc1ccc(S(=O)(=O)N2CCN(S(=O)(=O)c3ccc(C)cc3)C2c2ccccc2)cc1`: the concentration at half-maximal activity (AC50) was 4.72 µM (active) in test [6], 4.2 µM (active) in test [7], 1.58 µM (active) in test [8] and 4.63 µM (active) in test [9].

With `O=C1NC(=O)/C(=C2\C(=O)Nc3ccc([N+](=O)[O-])cc32)S1`, the results for the EC50 in test [10] and in test [11] were 13.2 µM (active) and 21.5 µM (inconclusive), respectively. Further, the IC50 at Fatty acid synthase [1] was 13.8 µM (active); at Fatty acid synthase [2], 9.24 µM (active).

Regarding `COc1cc(/C=C/C(=O)c2ccc(NS(=O)(=O)c3ccc(C)cc3)cc2)ccc1OC(F)F`, in the test on Vero, the CC50 was 22.5 µM (active).

For the molecule `CCN(C[C@H]1N[C@@](CC)(C(=O)OC)[C@H]2C(=O)N(Cc3ccccc3)C(=O)[C@@H]12)C(=O)Nc1ccc(Cl)cc1`, the AC50 in test [6] is 0.367 µM (active); in [7] it was < 0.26 µM (active); in [8], 0.277 µM (active); in test [9], < 0.26 µM (active).

Regarding `COC(=O)C1=C(O)/C(=C/c2cccc(OC)c2O)N=C1C`, at Large T antigen, the IC50 was 14.8 µM (active).

`COc1ccc(-c2c[nH]nc2N)cc1`: the IC50 at Leucine aminopeptidase is 60.8 µM (active).

For `COc1cc(NC(C)CCc2ccccc2)cc(OC)c1OC` (stereo unspecified), in test [12], the IC50 was 43.3 µM (inactive).

Consider `CCc1ccc(C(=O)COC(=O)c2cc([N+](=O)[O-])ccc2NCCO)cc1`, for which the IC50 at Fatty acid synthase [1] was 1.87 µM (active); on Fatty acid synthase [2], 3.82 µM (active).

Take `COc1ccc(CNC(=O)Cc2cn(C)c3ccccc23)c(OC)c1`: the IC50 in test [12] was > 80 µM (inactive).

Regarding `Cc1ccc(NC(=O)CN(C)C(=O)CSc2n[nH]c(N)n2)cc1`, the IC50 at Leucine aminopeptidase was 44.7 µM (active). Further, the AC50 is 31.6 µM (inconclusive) at Cytochrome P450 3A4 and 35.5 nM (inconclusive) on Cytochrome P450 2C19.

Regarding `COC(=O)c1cccc(NC(=O)Cn2cnc3ccccc3c2=O)c1`, at Leucine aminopeptidase, the IC50 is 43.5 µM (active).

For the molecule `CCOC(=O)Cc1cc(O)n2nc(C(C)(C)C)cc2n1`, in [12], the IC50 is > 80 µM (inactive).

`O=C(c1ccc(Cl)c(Cl)c1)N1CCC(=O)N(C(COCc2ccccc2)Cc2ccccc2)CC1` (stereo unspecified): the EC50 in test [3] was 2.88 µM (active).

Turning to `Cc1ccsc1/C=C1/C(=O)NN(c2ccccc2)C1=O`, the IC50 on Large T antigen is 28.1 µM (active).

As for `Cc1cc(NC(=O)/C=C/C(=O)N(c2ccccc2C)C(C(=O)NC2CCCC2)c2ccc(F)cc2)no1` (stereo unspecified), the CC50 in the test on Vero was 12.1 µM (active).

As for `O=C(c1cc2sccc2n1Cc1ccc(F)cc1)N1CCCc2ccccc21`, in test [3], the EC50 was 4.88 µM (active).

Turning to `N#CC1CCN(C(=O)c2ccc3c(Cl)c4c(nc3c2)CCCC4)CC1`, the IC50 at Fatty acid synthase [1] is 2.16 µM (active); at Fatty acid synthase [2], 1.89 µM (active).

Consider `CCCCN(Cc1ccccc1)S(=O)(=O)c1cc(Br)cc2c1N(C(C)=O)C(C)C2` (stereo unspecified), for which, in test [3], the EC50 was 18.2 µM (active).

For the molecule `C/C(=N/Nc1ccc(C(=O)O)cc1)c1ccc2c(c1)Nc1ccccc1S2`, the values for the IC50 (in test [13]; on Fatty acid synthase [1]; on Fatty acid synthase [2]) were 50.6 µM (active), 13.2 µM (active) and 11.1 µM (active), respectively.

For the molecule `CCN(CC)S(=O)(=O)c1ccc(N2CCOCC2)c(NC(=O)c2nn(C(C)C)c(=O)c3ccccc23)c1`, the AC50 in [14] is 15.6 µM (active).

As to `CCOC1=C2[C@@H](CN(S(=O)(=O)c3ccccc3C)[C@H]2c2ccc(Cl)cc2)[C@H]2C(=O)NC(=O)[C@H]2C1`, the AC50 was 7.02 µM (active) in [6], 3.92 µM (active) in [7], 19.5 µM (active) in test [8] and 3.71 µM (active) in [9].

For the molecule `O=C(CCC(=O)Nc1ccccc1Cl)N/N=C/c1ccccc1`, in [12], the IC50 is 31.6 µM (inactive).

`N=C(N)N/N=C/c1ccc(Cl)c(Cl)c1`: the CC50 with Vero was 21.4 µM (active).

The values above are taken from ChEMBL document CHEMBL1201862, “PubChem BioAssay data set” (2004).
